Test [1] deals with Xanthine dehydrogenase/oxidase (Homo sapiens, UniProt P47989). Description: Inhibition of XOD.
Test [2] concerns the target T1, Tyrosine-protein phosphatase non-receptor type 1 (Homo sapiens, UniProt P18031).
T1 sequence (P18031 whole entry): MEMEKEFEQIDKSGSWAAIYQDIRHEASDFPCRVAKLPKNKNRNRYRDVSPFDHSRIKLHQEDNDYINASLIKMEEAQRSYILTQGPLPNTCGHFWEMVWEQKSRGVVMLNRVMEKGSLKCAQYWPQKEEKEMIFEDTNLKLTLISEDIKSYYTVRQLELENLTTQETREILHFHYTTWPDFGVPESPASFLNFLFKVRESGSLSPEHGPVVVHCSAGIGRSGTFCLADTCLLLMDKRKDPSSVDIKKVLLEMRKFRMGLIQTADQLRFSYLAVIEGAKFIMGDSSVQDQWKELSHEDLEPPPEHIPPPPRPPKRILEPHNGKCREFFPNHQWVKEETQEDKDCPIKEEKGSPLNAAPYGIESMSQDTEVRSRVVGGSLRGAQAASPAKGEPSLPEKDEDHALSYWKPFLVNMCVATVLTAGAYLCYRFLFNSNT
The experiment in a line: Inhibition of human recombinant PTP1B after 10 mins.

Test [3] relates to HepG2. The experiment in a line: Cytotoxicity against human HepG2 cells by SRB assay. Type of test: functional. For orientation: Sulforhodamine B stains cellular protein and so reports cell mass.

Sequence of Xanthine dehydrogenase/oxidase (P47989 whole entry): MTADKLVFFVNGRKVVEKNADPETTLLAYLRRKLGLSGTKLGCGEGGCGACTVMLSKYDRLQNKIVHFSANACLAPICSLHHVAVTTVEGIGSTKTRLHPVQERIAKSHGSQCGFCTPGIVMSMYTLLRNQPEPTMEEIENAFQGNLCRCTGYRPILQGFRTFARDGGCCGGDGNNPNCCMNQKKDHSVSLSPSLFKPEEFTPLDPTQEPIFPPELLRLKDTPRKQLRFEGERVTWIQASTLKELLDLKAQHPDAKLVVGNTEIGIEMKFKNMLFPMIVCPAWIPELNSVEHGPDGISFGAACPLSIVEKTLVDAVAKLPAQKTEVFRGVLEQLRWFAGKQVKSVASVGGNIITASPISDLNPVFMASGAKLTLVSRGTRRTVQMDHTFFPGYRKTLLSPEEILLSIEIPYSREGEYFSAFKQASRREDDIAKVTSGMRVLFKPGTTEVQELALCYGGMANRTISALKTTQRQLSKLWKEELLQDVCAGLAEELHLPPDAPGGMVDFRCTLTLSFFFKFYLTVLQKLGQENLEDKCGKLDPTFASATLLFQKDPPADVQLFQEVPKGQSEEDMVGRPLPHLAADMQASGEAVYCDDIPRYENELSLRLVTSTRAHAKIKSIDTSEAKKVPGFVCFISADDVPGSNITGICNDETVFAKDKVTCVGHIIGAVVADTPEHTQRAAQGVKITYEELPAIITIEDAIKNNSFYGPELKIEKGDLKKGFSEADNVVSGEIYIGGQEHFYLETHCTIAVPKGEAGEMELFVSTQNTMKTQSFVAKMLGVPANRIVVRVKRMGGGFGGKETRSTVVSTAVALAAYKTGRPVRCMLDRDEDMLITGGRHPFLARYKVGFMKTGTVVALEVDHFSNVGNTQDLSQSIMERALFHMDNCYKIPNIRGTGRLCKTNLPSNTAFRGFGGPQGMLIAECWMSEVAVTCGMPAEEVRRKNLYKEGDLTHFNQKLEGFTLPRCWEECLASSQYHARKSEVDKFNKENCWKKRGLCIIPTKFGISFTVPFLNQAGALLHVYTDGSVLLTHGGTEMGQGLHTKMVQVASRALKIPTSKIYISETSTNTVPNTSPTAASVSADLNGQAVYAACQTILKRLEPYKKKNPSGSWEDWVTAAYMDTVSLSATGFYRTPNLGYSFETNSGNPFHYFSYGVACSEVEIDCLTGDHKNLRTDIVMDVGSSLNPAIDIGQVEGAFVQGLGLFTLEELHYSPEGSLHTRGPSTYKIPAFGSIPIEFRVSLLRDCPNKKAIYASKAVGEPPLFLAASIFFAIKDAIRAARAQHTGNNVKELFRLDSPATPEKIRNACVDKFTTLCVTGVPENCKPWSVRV

On to `O=c1cc(-c2ccc(O)c(O)c2)oc2cc(O)cc(O)c12` [LUTEOLIN], for which, in test [1], the midpoint of inhibition, the IC50, lay at 11.5 µM. Regarding `O=C(O)/C=C/c1ccc(O)c(O)c1` [CAFFEIC ACID], the IC50 (as a rule, the concentration at which inhibition is half-maximal) in test [2] turned out to be 3.06 µM. `CCOC(=O)/C=C/c1ccc(O)c(O)c1` [ETHYL CAFFEATE]: in test [3], the 50% growth inhibitory concentration (GI50) (as a rule, the concentration that inhibits growth by half) was determined as 17.2 µM.

Compound `CC(=O)O[C@H]1C(=O)[C@@]2(C)[C@H]([C@H](OC(=O)c3ccccc3)[C@]3(O)C[C@H](OC(=O)[C@H](O)[C@@H](NC(=O)c4ccccc4)c4ccccc4)C(C)=C1C3(C)C)[C@]1(OC(C)=O)CO[C@@H]1C[C@@H]2O` [PACLITAXEL] had a 50% growth inhibitory concentration (GI50) in test [3] of 0.059 µM. For the compound `COc1cc2cc(-c3cc4cc(O)c(O)cc4oc3=O)c(=O)oc2c(OC)c1O` [ARTEMINORIN C], the IC50 in test [1] was 7.71 µM.

The values are drawn from ChEMBL document CHEMBL1153774, “Chemical constituents from the aerial parts of Artemisia minor” (J Nat Prod, 2009).
